Experimental data reported in US9309198B2, “N-[3-(2-carboxyethyl)phenyl]piperidin-1-ylacetamide derivatives and use thereof as activators of soluble guanylate cyclase” (Bayer Pharma Aktiengesellschaft, priority 2012, dated 2016).

How the values were obtained:
[1] = biological target: T1, recombinant soluble guanylate cyclase (sGC), haem-containing (Rattus norvegicus, UniProt P20595); test: Stimulation of recombinant soluble guanylate cyclase (sGC) in vitro, haem-containing enzyme; assay type: biochemical; conditions: for Stimulation (x-times) of haem-containing sGC, Basal: n = 2
T1 construct: made in house
T1 sequence (P20595 1-619): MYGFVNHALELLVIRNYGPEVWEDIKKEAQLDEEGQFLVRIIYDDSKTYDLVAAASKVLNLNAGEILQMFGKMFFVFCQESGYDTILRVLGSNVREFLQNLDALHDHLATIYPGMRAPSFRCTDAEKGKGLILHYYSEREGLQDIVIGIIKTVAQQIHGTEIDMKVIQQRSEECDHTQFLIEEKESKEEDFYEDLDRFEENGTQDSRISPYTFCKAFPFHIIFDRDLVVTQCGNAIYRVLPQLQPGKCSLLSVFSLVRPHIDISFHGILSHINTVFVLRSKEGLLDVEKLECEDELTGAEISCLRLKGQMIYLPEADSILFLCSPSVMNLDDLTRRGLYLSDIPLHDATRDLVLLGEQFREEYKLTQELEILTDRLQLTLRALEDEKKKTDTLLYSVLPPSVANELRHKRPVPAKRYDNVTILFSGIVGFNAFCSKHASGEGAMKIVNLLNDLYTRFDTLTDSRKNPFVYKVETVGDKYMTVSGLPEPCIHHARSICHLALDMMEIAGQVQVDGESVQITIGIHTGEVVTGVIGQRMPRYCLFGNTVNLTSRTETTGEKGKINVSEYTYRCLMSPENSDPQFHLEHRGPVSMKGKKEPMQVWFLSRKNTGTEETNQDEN
T1 sequence (P19686 1-690 partner): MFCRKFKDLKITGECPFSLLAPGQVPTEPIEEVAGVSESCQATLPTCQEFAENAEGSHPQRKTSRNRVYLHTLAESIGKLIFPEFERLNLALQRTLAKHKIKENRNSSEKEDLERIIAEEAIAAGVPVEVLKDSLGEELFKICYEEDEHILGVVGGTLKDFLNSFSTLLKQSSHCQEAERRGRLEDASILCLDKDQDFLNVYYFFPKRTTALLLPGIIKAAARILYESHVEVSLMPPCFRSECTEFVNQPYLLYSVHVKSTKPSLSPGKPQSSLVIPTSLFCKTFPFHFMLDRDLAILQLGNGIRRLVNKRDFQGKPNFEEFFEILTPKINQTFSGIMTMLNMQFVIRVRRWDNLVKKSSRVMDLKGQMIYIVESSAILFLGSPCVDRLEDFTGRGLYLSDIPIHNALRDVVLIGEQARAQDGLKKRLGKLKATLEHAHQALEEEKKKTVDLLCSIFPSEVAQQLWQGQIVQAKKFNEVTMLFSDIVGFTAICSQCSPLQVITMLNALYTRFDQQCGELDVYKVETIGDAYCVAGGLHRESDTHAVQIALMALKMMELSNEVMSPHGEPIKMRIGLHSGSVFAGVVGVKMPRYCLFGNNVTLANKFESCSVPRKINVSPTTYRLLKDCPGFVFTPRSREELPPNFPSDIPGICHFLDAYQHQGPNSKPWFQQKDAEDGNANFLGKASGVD
From the text: (§1) B-1. Stimulation of Recombinant Soluble Guanylate Cyclase (sGC) In Vitro
Hoenicka, E. M. Becker, H. Apeler, T. Sirichoke, H. Schroeder, R. Gerzer and J.-P. Stasch, “Purified soluble guanylyl cyclase expressed in a baculovirus/Sf9 system: Stimulation by YC-1, nitric oxide, and carbon oxide”, J. Mol. Med. 77 (1999), 14-23. Haem-free guanylate cyclase is obtained by adding Tween 20 to the sample buffer (final concentration 0.5%).
(§2) Activation of sGC by a test substance is stated as x-fold stimulation of basal activity.

[2] = biological target: T2, recombinant soluble guanylate cyclase (sGC), haem-free (Rattus norvegicus, UniProt P20595); test: Stimulation of recombinant soluble guanylate cyclase (sGC) in vitro, haem-free enzyme; assay type: biochemical; conditions: n = 2
T2 construct: made in house
T2 sequence (P20595 1-619): T1 sequence (P20595 1-619)
T2 sequence (P19686 1-690 partner): T1 sequence (P19686 1-690 partner)
Procedure: as §1
The investigations on the stimulation of recombinant soluble guanylate cyclase (sGC) by the compounds according to the invention with and without sodium nitroprusside and with and without the haem-dependent sGC inhibitor 1H-1,2,4-oxadiazolo[4,3-a]quinoxalin-1-one (ODQ) are carried out by the method described in detail in the following literature reference: M. Hoenicka, E. M. Becker, H. Apeler, T. Sirichoke, H. Schroeder, R. Gerzer and J.-P. Stasch, “Purified soluble guanylyl cyclase expressed in a baculovirus/Sf9 system: Stimulation by YC-1, nitric oxide, and carbon oxide”, J. Mol. Med. 77 (1999), 14-23. Haem-free guanylate cyclase is obtained by adding Tween 20 to the sample buffer (final concentration 0.5%).
as §2

[3] = biological target: T3, recombinant guanylate cyclase reporter cell line (sGC, CHO reporter cell) (Rattus norvegicus, UniProt P20595); test: Effect on a recombinant guanylate cyclase reporter cell line (CHO reporter cell); assay type: cell-based
T3 construct: expressed in transfected cells; host or cells: CHO reporter cell line
T3 sequence (P20595 1-619): T1 sequence (P20595 1-619)
T3 sequence (P19686 1-690 partner): T1 sequence (P19686 1-690 partner)
Procedure: B-2. Effect on a Recombinant Guanylate Cyclase Reporter Cell Line The cellular activity of the compounds according to the invention is determined using a recombinant guanylate cyclase reporter cell line, as described in F. Wunder et al., Anal. Biochem. 339, 104-112 (2005).

[4] = biological target: T4, soluble guanylate cyclase (sGC) (Rattus norvegicus, UniProt P20595); test: Stimulation of sGC enzyme activity (PPi detection, luciferase luminescence); assay type: biochemical
T4 construct: made in house
T4 sequence (P20595 1-619): T1 sequence (P20595 1-619)
T4 sequence (P19686 1-690 partner): T1 sequence (P19686 1-690 partner)
Procedure: B-3. Stimulation of sGC Enzyme Activity
Soluble guanylate cyclase (sGC) converts on stimulation GTP into cGMP and pyrophosphate (PPi). PPi is detected with the aid of the assay described below. The signal produced in the assay increases as the reaction progresses and serves as a measure of the sGC enzyme activity under the given stimulation.
To carry out the assay, 29 μl of enzyme solution [0-10 nM soluble guanylate cyclase (prepared according to Hönicka et al., J. Mol. Med. 77, 14-23 (1999)) in 50 mM TEA, 2 mM MgCl2, 0.1% BSA (fraction V), 0.005% Brij®, pH 7.5] are initially introduced into a microplate, and 1 μl of the substance to be tested (as a serially diluted solution in DMSO) is added. The mixture is incubated at room temperature for 10 min. Then 20 μl of detection mix [1.2 nM Firefly Luciferase (Photinus pyralis luciferase, Promega), 29 μM dehydroluciferin (prepared according to Bitler & McElroy, Arch. Biochem. Biophys. 72, 358 (1957)), 122 μM luciferin (Promega), 153 μM ATP (Sigma) and 0.4 mM DTT (Sigma) in 50 mM TEA, 2 mM MgCl2, 0.1% BSA (fraction V), 0.005% Brij®, pH 7.5] are added. The enzyme reaction is started by adding 20 μl of substrate solution [1.25 mM guanosine 5′-triphosphate (Sigma) in 50 mM TEA, 2 mM MgCl2, 0.1% BSA (fraction V), 0.005% Brij®, pH 7.5] and measured continuously in a luminometer. The extent of the stimulation by the substance to be tested can be determined relative to the signal of the unstimulated reaction.
The activation of haem-free guanylate cyclase is examined by addition of 25 μM of 1H-1,2,4-oxadiazolo[4,3-a]quinoxalin-1-one (ODQ) to the enzyme solution and subsequent incubation for 30 minutes and compared to the stimulation of the native enzyme.

Structure (SMILES): C[C@H]([C@H](C(=O)Nc1cc(CC2(C(=O)O)CC2)ccc1Cl)N1CCC2(CC1)CC2)C(F)(F)F [Example 25, 1-(3-{[(2R,3R)-2-(6-Azaspiro[2.5]oct-6-yl)-4,4,4-trifluoro-3-methylbutanoyl]amino}-4-chlorobenzyl)cyclopropanecarboxylic acid]
- Stimulation (x-times) of haem-containing sGC, +0.01 μM DEA/NO ([1]; 0.01 μM Example 25 + 0.01 μM DEA/NO): 11.4 ± 3.9 x-times
- Stimulation (x-times) of haem-containing sGC, +10 μM ODQ ([1]; 0.01 μM Example 25 + 10 μM ODQ): 2.3 ± 0.1 x-times
- Stimulation (x-times) of haem-containing sGC, Basal ([1]; 0.01 μM Example 25): 0.9 ± 0.2 x-times
- Stimulation (x-times) of haem-containing sGC, +0.01 μM DEA/NO ([1]; 0.1 μM Example 25 + 0.01 μM DEA/NO): 11.9 ± 4.2 x-times
- Stimulation (x-times) of haem-containing sGC, +10 μM ODQ ([1]; 0.1 μM Example 25 + 10 μM ODQ): 2.7 ± 0.2 x-times
- Stimulation (x-times) of haem-containing sGC, Basal ([1]; 0.1 μM Example 25): 0.9 ± 0.0 x-times
- Stimulation (x-times) of haem-containing sGC, +0.01 μM DEA/NO ([1]; 1.0 μM Example 25 + 0.01 μM DEA/NO): 12.0 ± 3.9 x-times
- Stimulation (x-times) of haem-containing sGC, +10 μM ODQ ([1]; 1.0 μM Example 25 + 10 μM ODQ): 10.5 ± 2.4 x-times
- Stimulation (x-times) of haem-containing sGC, Basal ([1]; 1.0 μM Example 25): 2.8 ± 0.4 x-times
- Stimulation (x-times) of haem-containing sGC, +0.01 μM DEA/NO ([1]; 10 μM Example 25 + 0.01 μM DEA/NO): 15.1 ± 2.9 x-times
- Stimulation (x-times) of haem-containing sGC, +10 μM ODQ ([1]; 10 μM Example 25 + 10 μM ODQ): 32.5 ± 5.4 x-times
- Stimulation (x-times) of haem-containing sGC, Basal ([1]; 10 μM Example 25): 8.6 ± 0.2 x-times
- Effect of combination with the NO donor DEA/NO on sGC stimulation ([1]; combination with DEA/NO, haem-containing sGC): no synergistic effect
- Effect of the haem-dependent sGC inhibitor ODQ on the activity of the sGC activator ([1]; with ODQ, haem-containing sGC): not blocked but, in contrast, even enhanced
- Stimulation (x-times) of haem-free sGC, Basal ([2]; 0.01 μM Example 25): 1.9 ± 0.8 x-times
- Stimulation (x-times) of haem-free sGC, Basal ([2]; 0.1 μM Example 25): 2.4 ± 0.8 x-times
- Stimulation (x-times) of haem-free sGC, Basal ([2]; 1.0 μM Example 25): 7.3 ± 3.6 x-times
- Stimulation (x-times) of haem-free sGC, Basal ([2]; 10 μM Example 25): 26.6 ± 7.3 x-times
- MEC (minimum effective concentration), sGC-activating activity in the CHO reporter cell in vitro [3]: 1 nM
- MEC (minimum effective concentration), activating action at the sGC enzyme in vitro [4]: 2.2 nM
- EC50 ([4]; read-out: EC50 (half-maximal effective concentration), activating action at the sGC enzyme in vitro): 15 nM

Structure (SMILES): CC1CCN([C@@H](C(=O)Nc2cc(CC3(C(=O)O)CC3)ccc2Cl)[C@@H](C)C(F)(F)F)CC1 [Example 51, 1-(4-Chloro-3-{[(2R,3R)-4,4,4-trifluoro-3-methyl-2-(4-methylpiperidin-1-yl)butanoyl]amino}benzyl)cyclopropanecarboxylic acid]
- MEC (minimum effective concentration), sGC-activating activity in the CHO reporter cell in vitro [3]: 1 nM
- MEC (minimum effective concentration), activating action at the sGC enzyme in vitro [4]: 1.2 nM
